From the NIST ThermoML archive (doi:10.1016/j.jct.2009.12.004)
Values joined by “and” are separate entries in the source; they are usually repeats but may differ in a detail not shown here. Identical values can stand only once. ± gives the expanded uncertainty stated by the source.

Columns and labels:
[1] = activity coefficient (dimensionless); of the first substance listed, at infinite dilution; xn = mol fraction of the nth substance listed; details: Liquid, Chromatography, x1 = 0
[2] = 298.15 K; 101.33 kPa; Liquid; Vibrating tube method

Row | SMILES | activity coefficient ([1]; 313.15 K) | activity coefficient ([1]; 323.15 K) | activity coefficient ([1]; 333.15 K) | mass density [2] [kg/m3]
1 | C#CCCCC [1-hexyne] + CCCCCCCC[n+]1ccn(C)c1.F[P-](F)(F)(F)(F)F | 2.24 and 2.33 | 2.38 and 2.3 | 2.34 and 2.43 | –
2 | C#CCCC [1-pentyne] + CCCCCCCC[n+]1ccn(C)c1.F[P-](F)(F)(F)(F)F | 1.7 and 1.72 | 1.79 and 1.75 | 1.78 and 1.84 | –
3 | c1ccccc1 [benzene] + CCCCCCCC[n+]1ccn(C)c1.F[P-](F)(F)(F)(F)F | 0.96 and 0.97 | 0.99 ± 0.08 | 1 and 1.03 | –
4 | C1CCCCCC1 [cycloheptane] + CCCCCCCC[n+]1ccn(C)c1.F[P-](F)(F)(F)(F)F | 8.2 and 8 | 7.74 and 7.97 | 7.63 and 7.75 | –
5 | C1CCCCC1 [cyclohexane] + CCCCCCCC[n+]1ccn(C)c1.F[P-](F)(F)(F)(F)F | 6.7 and 6.82 | 6.61 and 6.56 | 6.29 and 6.3 | –
6 | C1CCCCCCC1 [cyclooctane] + CCCCCCCC[n+]1ccn(C)c1.F[P-](F)(F)(F)(F)F | 10.2 and 9.9 | 9.5 and 9.9 | 9.4 ± 0.8 | –
7 | C1CCCC1 [cyclopentane] + CCCCCCCC[n+]1ccn(C)c1.F[P-](F)(F)(F)(F)F | 5.02 and 5.06 | 4.95 and 4.92 | 4.77 and 4.79 | –
8 | CCO [ethanol] + CCCCCCCC[n+]1ccn(C)c1.F[P-](F)(F)(F)(F)F | 2.22 and 2.32 | 2.05 and 2 | 1.79 and 1.82 | –
9 | CCc1ccccc1 [ethylbenzene] + CCCCCCCC[n+]1ccn(C)c1.F[P-](F)(F)(F)(F)F | 1.95 ± 0.17 | 1.98 ± 0.17 | 1.99 and 2.02 | –
10 | CO [methanol] + CCCCCCCC[n+]1ccn(C)c1.F[P-](F)(F)(F)(F)F | 1.77 and 1.85 | 1.65 and 1.61 | 1.46 and 1.5 | –
11 | CCCCC [pentane] + CCCCCCCC[n+]1ccn(C)c1.F[P-](F)(F)(F)(F)F | 8.2 and 8.3 | 8.1 ± 0.7 | 7.8 and 8 | –
12 | Cc1ccccc1 [toluene] + CCCCCCCC[n+]1ccn(C)c1.F[P-](F)(F)(F)(F)F | 1.31 and 1.36 | 1.37 and 1.35 | 1.37 and 1.41 | –

More lines, now with the values ahead:

Row | activity coefficient ([1]; 313.15 K) | activity coefficient ([1]; 323.15 K) | activity coefficient ([1]; 333.15 K) | mass density [2] [kg/m3] | SMILES
13 | 16.3 and 16.7 | 16.3 and 16.5 | 16.3 and 16.4 | – | C=CCCCCCCCC [1-decene] + CCCCCCCC[n+]1ccn(C)c1.F[P-](F)(F)(F)(F)F
14 | 8.2 ± 0.7 | 8.1 and 8.2 | 8 and 8.1 | – | C=CCCCCC [1-heptene] + CCCCCCCC[n+]1ccn(C)c1.F[P-](F)(F)(F)(F)F
15 | 2.81 and 2.93 | 2.98 and 2.87 | 2.93 and 3.04 | – | C#CCCCCC [1-heptyne] + CCCCCCCC[n+]1ccn(C)c1.F[P-](F)(F)(F)(F)F
16 | 14.2 and 13.5 | 13.3 and 13.9 | 13.5 and 13.3 | – | C=CCCCCCCC [1-nonene] + CCCCCCCC[n+]1ccn(C)c1.F[P-](F)(F)(F)(F)F
17 | – | – | – | 1238.51 ± 10 | CCCCCCCC[n+]1ccn(C)c1.F[P-](F)(F)(F)(F)F [1-octyl-3-methylimidazolium hexafluorophosphate]
18 | 3.77 and 3.9 | 3.94 and 3.87 | 3.94 and 4.03 | – | C#CCCCCCC [1-octyne] + CCCCCCCC[n+]1ccn(C)c1.F[P-](F)(F)(F)(F)F
19 | 31.8 and 31.7 | 30.8 and 30.3 | 28.2 and 29 | – | CCCCCCCCCC [decane] + CCCCCCCC[n+]1ccn(C)c1.F[P-](F)(F)(F)(F)F
20 | 14.1 and 14.3 | 13.6 and 13.8 | 13.2 ± 1.1 | – | CCCCCCC [heptane] + CCCCCCCC[n+]1ccn(C)c1.F[P-](F)(F)(F)(F)F
21 | 6.2 and 6.5 | 6.29 and 6.15 | 6.1 and 6.15 | – | C=CCCCC [hex-1-ene] + CCCCCCCC[n+]1ccn(C)c1.F[P-](F)(F)(F)(F)F
22 | 10.8 and 11 | 10.7 and 10.6 | 10.2 and 10.4 | – | CCCCCC [hexane] + CCCCCCCC[n+]1ccn(C)c1.F[P-](F)(F)(F)(F)F
23 | 10.8 and 10.3 | 10.2 and 10.7 | 10.4 and 10.3 | – | C=CCCCCCC [oct-1-ene] + CCCCCCCC[n+]1ccn(C)c1.F[P-](F)(F)(F)(F)F
24 | 18.3 and 17.6 | 17.1 and 17.9 | 17 and 16.9 | – | CCCCCCCC [octane] + CCCCCCCC[n+]1ccn(C)c1.F[P-](F)(F)(F)(F)F
25 | 42.1 and 41.3 | 40.1 and 39.6 | 36.5 and 37 | – | CCCCCCCCCCC [undecane] + CCCCCCCC[n+]1ccn(C)c1.F[P-](F)(F)(F)(F)F
